According to patent publication US8129401B2, “Heterocyclic compounds useful for the treatment of inflammatory and allergic disorders: process for their preparation and pharmaceutical compositions containing them” (Glenmark Pharmaceuticals S.A., priority 2004, dated 2012):
pIC50: −log10 of the molar value. Structures can show the parent of a compound that is named as a salt.

Test system: PDE4 enzyme
Assay: Inhibition of phosphodiesterase enzymes (PDE4), [3H]cAMP hydrolysis assay
Assay type: biochemical
Conditions: PDE4 inhibition at 1 μM compound

Row | percent inhibition at 1 μM [% at 1 μM] | Compound
1 | 31.75 | COc1ccc(C(=O)Nc2c(Cl)cncc2Cl)c2c3c(sc12)CNCC3 [Example 08, N5 (3,5-dichloro-4-pyridyl)-8-methoxy-1,2,3,4-tetrahydrobenzo[4,5]thieno[2,3-c]pyridine-5-carboxamide hydrochloride]
2 | 27.74 | COc1ccc(C(=O)Nc2c(Cl)cncc2Cl)c2c3c(n(C)c12)CCN(C(=O)OC(C)(C)C)C3 [Example 10, tert-butyl 9-(3,5-dichloro-4-pyridylcarbamoyl)-6-methoxy-5-methyl-1,3,4,5-tetrahydro-1H-pyrido[4,3-b]indole-2-carboxylate]
3 | 48.79 | COc1ccc(C(=O)Nc2c(Cl)cncc2Cl)c2c3c(n(CC4CC4)c12)CCN(C(=O)OC(C)(C)C)C3 [Example 12, tert-butyl 9-(3,5-dichloro-4-pyridylcarbamoyl)-6-methoxy-5-cyclopropylmethyl-1,3,4,5-tetrahydro-1H-pyrido[4,3-b]indole-2-carboxylate]
4 | 12.90 | COc1ccc(C(=O)Nc2c(Cl)cncc2Cl)c2c3c(n(C)c12)CCN(C)C3 [Example 15, N9-(3,5-dichloro-4-pyridylcarbamoyl)-6-methoxy-2,5-methyl-1,3,4,5-tetrahydro-1H-pyrido[4,3-b]indole]
5 | 33.67 | COc1ccc(C(=O)Nc2ccncc2)c2c3c(n(C)c12)CCN(C(=O)OC(C)(C)C)C3 [Example 17, tert-butyl 9-(4-pyridinylcarbamoyl)-6-methoxy-5-methyl-1,3,4,5-tetrahydro-1H-pyrido[4,3-b]indole-2-carboxylate]
6 | 34.54 | COc1ccc(C(=O)Nc2c(Cl)cncc2Cl)c2c3c(n(C)c12)C(=O)N(C)CC3 [Example 22, N-(3,5-dichloropyridin-4-yl)-2,9-dimethyl-8-methoxy-1-oxo-1,2,3,4-tetrahydro-β-carboline-5-carboxamide]
7 | 20.99 | N9-(3,5-dichloro-4-pyridylcarbamoyl)-6-methoxy-5-methyl-1,3,4,5-tetrahydro-1H-pyrido[4,3-b]indole hydrochloride [Example 13]

Same assay, conditions: PDE4 inhibition, 1 μM cAMP, 34° C.

Row | pIC50 | Compound
8 | 6.31 | COc1ccc(C(=O)Nc2c(Cl)cncc2Cl)c2c1oc1cncnc12 [Example 02, N9-(3,5-dichloro-4-pyridyl)-6-methoxybenzo[4,5]furo[3,2-d]pyrimidine-9-carboxamide]
9 | 9.14 | COc1ccc(C(=O)Nc2c(Cl)cncc2Cl)c2c1oc1ccncc12 [Example 03, N9-(3,5-dichloro-4-pyridyl)-6-methoxybenzo[4,5]furo[3,2-c]pyridine-9-carboxamide]
10 | 6.38 | COc1ccc(C(=O)Nc2c(Cl)cncc2Cl)c2c3c(sc12)CN(C(=O)OC(C)(C)C)CC3 [Example 07, tert-butyl 5-(3,5-dichloro-4-pyridylcarbamoyl)-8-methoxy-1,2,3,4-tetrahydrobenzo[4,5]thieno[2,3-c]pyridine-2-carboxylate]
11 | 6.75 | COc1ccc(C(=O)Nc2c(Cl)cncc2Cl)c2c3c(n(Cc4ccccc4)c12)CCN(C(=O)OC(C)(C)C)C3 [Example 11, tert-butyl 9-(3,5-dichloro-4-pyridylcarbamoyl)-6-methoxy-5-benzyl-1,3,4,5-tetrahydro-1H-pyrido[4,3-b]indole-2-carboxylate]
12 | 5.45 | COc1ccc(C(=O)Nc2c(Cl)cncc2Cl)c2c3c(n(Cc4ccccc4)c12)CCNC3 [Example 14, N9-(3,5-dichloro-4-pyridylcarbamoyl)-6-methoxy-5-benzyl-1,3,4,5-tetrahydro-1H-pyrido[4,3-b]indole hydrochloride]
13 | 5.64 | COc1ccc(C(=O)Nc2c(Cl)cncc2Cl)c2c3c(n(Cc4ccccc4)c12)CCN(C)C3 [Example 16, N9-(3,5-dichloro-4-pyridylcarbamoyl)-6-methoxy-2-methyl-5-benzyl-1,3,4,5-tetrahydro-1H-pyrido[4,3-b]indole]
14 | 8.12 | CCOC(=O)N1CCc2c(oc3c(OC)ccc(C(=O)Nc4c(Cl)cncc4Cl)c23)C1 [Example 19, N-(3,5-dichloropyridin-4-yl)-2-(ethoxycarbonyl)-8-methoxy-1,2,3,4-tetrahydro[1]benzofuro[2,3-c]pyridine-5-carboxamide]
15 | 7.76 | COc1ccc(C(=O)Nc2c(Cl)cncc2Cl)c2c3c(oc12)CNCC3 [Example 20, N-(3,5-dichloropyridin-4-yl)-8-methoxy-1,2,3,4-tetrahydro[1]benzofuro[2,3-c]pyridine-5-carboxamide hydrochloride]
16 | 7.69 | COc1ccc(C(=O)Nc2c(Cl)cncc2Cl)c2c3c(oc12)CCNC3 [Example 21, N-(3,5-dichloropyridin-4-yl)-6-methoxy-1,2,3,4-tetrahydro[1]benzofuro[3,2-c]pyridine-9-carboxamide hydrochloride]
17 | 8.40 | O=C(Nc1c(Cl)c[n+]([O-])cc1Cl)c1ccc(OC(F)F)c2oc3cnncc3c12 [Example 25, 3,5-dichloro-4-(6-difluoromethoxybenzo[4,5]furo[2,3-d]pyridazine-9-ylcarboxamido)-1-pyridiniumolate]
18 | 8.57 | O=C(Nc1c(Cl)c[n+]([O-])cc1Cl)c1ccc(OC(F)F)c2oc3ccncc3c12 [Example 26, 3,5-dichloro-4-(6-difluoromethoxybenzo[4,5]furo[3,2-c]pyridin-9-ylcarboxamido)-1-pyridiniumolate]
19 | 8.62 | O=C(Nc1c(Cl)c[n+]([O-])cc1Cl)c1ccc(OC(F)F)c2oc3ccncc3c12 [Example 27, 3,5-dichloro-4-(6-difluoromethoxybenzo[4,5]furo[3,2-c]pyridin-9-ylcarboxamido)-1-pyridiniumolate sodium]

Row | Compound | pIC50
20 | COc1ccc(C(=O)Nc2c(Cl)cncc2Cl)c2c1oc1cnncc12 [Example 01, N9-(3,5-dichloro-4-pyridyl)-6-methoxybenzo[4,5]furo[2,3-d]pyridazine-9-carboxamide] | 8.86
21 | O=C(Nc1c(Cl)cncc1Cl)c1ccc(OC(F)F)c2oc3cnncc3c12 [Example 04, N9-(3,5-dichloro-4-pyridyl)-6-difluoromethoxybenzo[4,5]furo[2,3-d]pyridazine-9-carboxamide] | 8.47
22 | O=C(Nc1c(Cl)cncc1Cl)c1ccc(OC(F)F)c2oc3ccncc3c12 [Example 23, N9-(3,5-dichloro-4-pyridyl)-6-difluoromethoxybenzo[4,5]furo[3,2-c]pyridine-9-carboxamide] | 9.60

Same assay, conditions: PDE4 inhibition, 1 μM cAMP, 34° C.; sodium

Row | Compound | pIC50
23 | O=C(Nc1c(Cl)cncc1Cl)c1ccc(OC(F)F)c2oc3ccncc3c12 [Example 24, N9-(3,5-dichloro-4-pyridyl)-6-difluoromethoxybenzo[4,5]furo[3,2-c]pyridine-9-carboxamide sodium] | 10.70

Same assay, conditions: PDE4 inhibition, 1 μM cAMP, 34° C.; sodium salt

Row | Compound | pIC50
24 | O=C(Nc1c(Cl)cncc1Cl)c1ccc(OC(F)F)c2oc3cnncc3c12 [Example 05, N9-(3,5-dichloro-4-pyridyl)-6-difluoromethoxybenzo[4,5]furo[2,3-d]pyridazine-9-carboxamide sodium salt] | 8.38
25 | COc1ccc(C(=O)Nc2c(Cl)cncc2Cl)c2c1oc1cnncc12 [Example 18, N9-(3,5-dichloro-4-pyridyl)-6-methoxybenzo[4,5]furo[2,3-d]pyridazine-9-carboxamide sodium salt] | 8.39
